Assay results as given in PMC11187126, “Structure and dynamics of the pyroglutamylated RF-amide peptide QRFP receptor GPR103” (Nature Communications, 2024).
Read-outs that look alike come from different tables or passages of the source. No end group written: not given here.

Biological target: T1, GPR103 E203^ECL2A/Q211^5.35E/E297^6.59A (Homo sapiens, UniProt Q96P65, E203A/E297A/Q211E)
T1 construct: we used human full-length QRFPR-encoding plasmids; expressed in transfected cells; host or cells: HEK293 cells (HEK293A in the flow cytometry section), pCAGGS vector
T1 sequence (Q96P65 1-431 E203A/Q211E/E297A): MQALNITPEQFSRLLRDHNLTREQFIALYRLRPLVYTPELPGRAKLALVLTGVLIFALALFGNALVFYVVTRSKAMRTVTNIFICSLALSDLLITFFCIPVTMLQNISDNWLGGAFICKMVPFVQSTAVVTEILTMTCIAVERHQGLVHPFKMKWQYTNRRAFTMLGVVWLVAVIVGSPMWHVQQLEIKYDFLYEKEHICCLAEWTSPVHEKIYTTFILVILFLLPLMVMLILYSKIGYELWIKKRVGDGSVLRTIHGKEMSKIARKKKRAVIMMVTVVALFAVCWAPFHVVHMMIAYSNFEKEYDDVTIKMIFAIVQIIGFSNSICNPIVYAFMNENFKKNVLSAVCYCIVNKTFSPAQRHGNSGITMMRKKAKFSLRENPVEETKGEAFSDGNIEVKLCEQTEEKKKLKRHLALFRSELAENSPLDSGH
Experiment: TGFα shedding assay; Exp. level >WT (1:1)
Assay type: cell-based
Experimental: For the TGFα shedding assay and the flow cytometry analysis, we used human full-length QRFPR-encoding plasmids. Specifically, GPR103 was N-terminally modified with an HA signal sequence followed by a FLAG epitope and then a flexible linker ([…]; the FLAG epitope is underlined) and inserted into the pCAGGS vector. Plasmid encoding GPR103 mutants were generated using Quickchange Site-Directed Mutagensis kit (Agilent).
The TGFα shedding assay was performed as described previously with minor modifications. Plasmid transfection was performed in a 6-well plate with a mixture of 500 ng (per well in a 6-well plate) AP-TGFα-encoding plasmid and 200 ng GPR103-encoding plasmid. After 1-day culture, the transfected cells were harvested by trypsinization, pelleted by centrifugation at 190 × g for 5 min, and washed once with 5 mM HEPES (pH 7.4)-containing Hank’s Balanced Salt Solution (HBSS). After centrifugation, the cells were resuspended in 8 mL of the HEPES-containing HBSS. The cell suspension was seeded in a 96-well culture plate (cell plate) at a volume of 90 μL (per well hereafter) and incubated in a 37 °C incubator with 5% CO2 for 30 min. […] After spinning the cell plates at 190 × g for 2 min, 80 μL of conditioned media was transferred to an empty 96-well plate (conditioned media (CM) plate). Then, 80 μL of AP reaction solution (10 mM p-nitrophenylphosphate (p-NPP), 120 mM Tris-HCl (pH 9.5), 40 mM NaCl, and 10 mM MgCl2) was dispensed into the cell plates and the CM plates. Absorbance at 405 nm of the plates was measured using a microplate reader (SpectraMax 340 PC384, Molecular Devices) before and after 1-h incubation at room temperature. Ligand-induced AP-TGFα release was calculated by subtracting spontaneous AP-TGFα release signal from ligand-induced AP-TGFα release signal. The AP-TGFα release signals were fitted to a four-parameter sigmoidal concentration–response curve, using the Prism 10 software (GraphPad Prism). For each replicate experiment, the pEC50 parameter (negative logarithmic values of EC50 values) of the individual GPR103 mutants were normalized to that of the wild-type GPR103 performed in parallel, and resulting ∆pEC50 values were used to denote ligand response activity of the mutants. […]
Exp. le vel: WT (1:5 0)Exp. le vel: WT (1:5 0)Exp. le vel: WT (1:5 0)Exp. le vel: WT (1:2 0)Exp. le vel: WT (1:2 0)Exp. le vel: WT (1:1 0) […]
L1 4N - t e r mA F2 5N - t e r mA I 2 6N - t e r mA Y 2 9N - t e r mA C 9 82 .5 7A T10 22 .6 1A Exp . l eve l: WT (1 :5)Exp . l evel : >WT (1 :1)Exp. le vel: WT (1:2 0)Exp. le vel: WT (1:2 0)Exp. le vel: WT (1:5 0)Exp . l eve l: WT (1 :1) […]
Exp. le vel: WT (1:1 0)Exp. le vel: WT (1:2 0) C 1 1 83 .2 5AExp. le vel: WT (1:5 0)Exp. le vel: WT (1:5 0)Exp. le vel: WT (1:2 0)Exp . l eve l: WT (1 :5) […]
Exp. le vel: WT (1:5 0)Exp. le vel: WT (1:1 0)Exp. le vel: WT (1:5 0) E203ECL2AExp . l evel : >WT (1 :1)Exp. le vel: WT (1:5 0)Exp. le vel: WT (1:5 0) […]
Exp . l eve l: WT (1 :1) F28Exp. le vel: WT (1:5 0) C 2 8 56 .4 7AExp. le vel: WT (1:2 0) WExp. le vel: WT (1:2 0) F28Exp. le vel: WT (1:5 0)Exp . l evel : >WT (1 :1) […]
Exp. le vel: WT (1:5 0)Exp. le vel: WT (1:5 0) C 3 2 77 .4 8AExp . l eve l: WT (1 :5)Exp . l evel : >WT (1 :1)Exp . l evel : >WT (1 :1) […]
Suppl eme nt ary Figure 1 | Mutational analysis of GPR103. […]
mutants. Data are presented as mean values ± SEM, normally n=3-5; dots), each performed in triplicate. b-d Cell-surface expression (b) and QRFP26-in-duced activation of GPR103 (c, d) were analyzed by the flow cytometry and the TGFα shedding assay, respectively. From the concentration–response curves (a), Emax (c) and ΔpEC50 (d) values relative to the wild type were calculated. Colors in the mutant bars indicate an expression level matching to that of titrated wild type. Statistical analyses were performed using the ordinary one-way ANOVA followed by Dunnett tests with the expression-matched […]

Emax (Exp. #1): 103.81 % WT
Emax (Exp. #2): 100.88 % WT
Emax (Exp. #3): 112.76 % WT
Emax (mean, read-out: Emax): 106%
EC50 (n = 3): 427 nM
Emax (n = 3, read-out: Emax): 109 ± 2.9%
Substance: TSGPLGNLAEELNGYSRKKGGFSFRF-NH2 [QRFP26]
